Test results from article PMC11277004, “Di- and Triselenoesters—Promising Drug Candidates for the Future Therapy of Triple-Negative Breast Cancer” (International Journal of Molecular Sciences, 2024).
Read-outs that look alike come from different tables or passages of the source.

Experiments:
[1] = tested on: MCF-7 breast cancer cells; assay: MTT cytotoxicity test, MCF-7; type: cell-based, human; details: MCF-7, 24 h incubation, read-out: IC50, cell viability (MTT)
Method: (§1) MCF-7 and MDA-MB-231 human breast cancer cell lines, as well as MCF-10A normal human breast epithelial cells, were acquired from the American Type Culture Collection (ATCC, Manassas, VA, USA). The characteristics of the breast cancer cell lines used in this study are compared in Table 1. MCF-7 and MDA-MB-231 cells were cultured in Dulbecco’s modified Eagle’s medium (Gibco, San Diego, CA, USA), while MCF-10A cells were cultured in the mammary epithelial cell growth medium with the following supplements: BPE, hEGF, insulin, hydrocortisone, GA-1000 (Lonza, Basel, Switzerland). All media were complemented by 10% of fetal bovine serum (FBS) and 1% of the following antibiotics: penicillin and streptomycin (both Gibco, San Diego, CA, USA). The cells were maintained in an incubator that provides the optimal growth conditions for the cell culture: 5% CO2, 37 °C, and humidity in a range of 90–95%. The cells were cultured in 100 mm plates (Sarstedt, Newton, NC, USA). Subsequently, after obtaining a subconfluent cell culture, the cells were detached with 0.05% trypsin with 0.02% EDTA (Gibco, San Diego, CA, USA). […] In this study, cells that obtained 80% confluence were used. The MTT assay was used to determine the cytotoxic effects of the compounds in the study on MCF-7 and MDA-MB-231 breast cancer cells as well as MCF-10A normal human breast epithelial cells based on Carmichael’s method. […] After this time, the medium was removed, and the cell monolayer was washed with warm phosphate-buffered saline (PBS) without calcium and magnesium. In the next step, PBS and MTT solution in PBS (5 mg/mL) were added to each well to obtain a final MTT concentration of 0.5 mg/mL, and then the cells were incubated for 4 h (37 °C temperature, 5% CO2, 90–95% humidity). After the incubation period, the contents of each well were removed, 1 mL of DMSO was added to dissolve the formazan, and then the plate with the added DMSO was mixed for 5–10 min on a microplate shaker (Boeco, Hamburg, Germany). Then, 10 µL of Sorensen’s glycine buffer (a solution of 0.1 M glycine and 0.1 M sodium chloride adjusted to pH 10.5 with 0.1 M sodium hydroxide) was added. The absorbance of the obtained solution was immediately measured at a wavelength of λ = 570 nm using a Thermo Scientific Evolution 201 UV–VIS spectrophotometer (Thermo Fisher Scientific, Waltham, MA, USA). The absorbance result obtained in the control cells (without the addition of the tested compounds) was taken as 100%, while the viability of cells incubated with the tested compounds was presented as a percentage of the control value.

[2] = tested on: MCF-10A normal human breast epithelial cells; assay: MTT cytotoxicity test, MCF-10A; type: cell-based; details: 24 h incubation, read-out: IC50, cell viability (MTT)
Method: as §1

[3] = tested on: breast cancer cells (MCF-7 and MDA-MB-231); assay: Apoptosis induction, summary statements; type: cell-based, human
Method: The FITC Annexin V Apoptosis Detection Kit II (BD Pharmingen, San Diego, CA, USA) and a flow cytometer (BD FACSCanto II, BD Biosciences Systems, San Jose, CA, USA) were used in this evaluation. The assay was performed according to the manufacturer’s instructions. Flow cytometer calibration was performed by preparing two controls—a positive and a negative control. […] The negative control was cells that were not treated with any of the proapoptotic agents. First, in the cells treated with the tested compounds as well as the controls, the medium was removed, and the cells were washed twice with cold PBS. Subsequently, the cells were resuspended in the binding buffer included in the kit at a concentration of 1 × 10^6 cells/mL. From each sample, 100 µL of cell suspension was taken and transferred to test tubes, to which 5 µL each of FITC annexin V and propidium iodide (PI) were then added. The contents of the test tubes were gently vortexed and incubated for 15 min at room temperature, protected from light. After the required time, the contents of the test tubes were made up to 500 µL with binding buffer and immediately analyzed in a flow cytometer (10,000 events measured). After the flow cytometer readout, the results were analyzed using the FACSDiva 6.0 software (BD Biosciences Systems, San Jose, CA, USA). […]

Row | Structure (SMILES) | IC50 [1] | IC50 [2] | IC50 ([1]; Homo sapiens, MCF7) | development of necrosis in the breast cancer cell lines (in words) [3] | IC50 ([2]; Homo sapiens)
1 | N.N.[Cl][Pt][Cl] [Cisplatin, reference compound] | > 5000 nM | > 5000 nM | – | – | –
2 | CC(=O)C[Se]C(=O)c1ccc(C(=O)[Se]CC(C)=O)cc1 [EDAG-1, Se,Se-bis(2-oxopropyl) benzene-1,4-bis(carboselenoate)] | – | – | 470 ± 60 nM | did not affect the development of necrosis | 410 ± 30 nM
3 | CC(=O)C[Se]C(=O)c1cc(C(=O)[Se]CC(C)=O)cc(C(=O)[Se]CC(C)=O)c1 [EDAG-8, Se,Se,Se-tris-(2-oxopropyl) benzene-1,3,5-tris-(carboxyselenoate)] | – | – | 610 ± 50 nM | did not affect the development of necrosis | 510 ± 20 nM
